Data from a compilation of properties of binary mixtures (doi:10.1007/s10973-018-7399-0).

Test: xn = mol fraction of the nth substance listed
Conditions: 93.2 kPa

CC(=O)[O-].CCCC[NH3+] + CCO
Conditions | speed of sound, 293.15 K [m/s] | speed of sound, 298.15 K [m/s] | speed of sound, 303.15 K [m/s] | speed of sound, 308.15 K [m/s] | speed of sound, 313.15 K [m/s] | viscosity, 293.15 K [mPa·s] | viscosity, 298.15 K [mPa·s] | viscosity, 303.15 K [mPa·s] | viscosity, 308.15 K [mPa·s] | viscosity, 313.15 K [mPa·s]
x1 = 0.0501 | 1196.2 | 1179.2 | – | 1145.8 | – | 1.96 | 1.76 | – | 1.44 | –
x1 = 0.0992 | 1225.1 | 1208.3 | 1191.7 | 1175.2 | 1158.9 | 2.97 | 2.65 | 2.37 | 2.13 | 1.93
x1 = 0.15 | – | 1234.9 | 1218.5 | 1202.1 | – | – | 3.94 | 3.5 | 3.11 | –
x1 = 0.2001 | – | 1258.4 | 1242.1 | 1225.9 | – | – | 5.77 | 5.08 | 4.49 | –
x1 = 0.2511 | 1296.4 | 1280.1 | 1263.9 | 1247.8 | 1231.9 | 9.6 | 8.32 | 7.24 | 6.34 | 5.58
x1 = 0.3001 | – | 1299 | 1282.9 | 1266.9 | – | – | 11.6 | 10 | 8.67 | –
x1 = 0.35 | 1332.8 | 1316.6 | 1300.6 | – | 1269 | 19.2 | 16.3 | 13.9 | – | 10.3
x1 = 0.3999 | 1349.1 | – | 1317.1 | – | 1285.6 | 26.7 | – | 18.9 | – | 13.9
x1 = 0.4483 | 1363.2 | 1347.1 | 1331.2 | 1315.5 | – | 36.5 | 30.3 | 25.4 | 21.4 | –
x1 = 0.4987 | – | 1361 | 1345.2 | 1329.5 | 1314.1 | – | 41.2 | 34.1 | 28.4 | 24
x1 = 0.5503 | 1390.1 | – | 1358.3 | 1342.7 | 1327.3 | 69.5 | – | 45.9 | 37.9 | 31.6
x1 = 0.6002 | 1402 | – | 1370.2 | 1354.6 | 1339.2 | 94 | – | 60.7 | 49.5 | 40.9
x1 = 0.6511 | 1413.7 | 1397.6 | 1381.7 | 1366.1 | – | 128 | 101.1 | 80.6 | 65 | –
x1 = 0.7008 | – | – | 1392.4 | 1376.8 | 1361.4 | – | – | 106 | 84.2 | 68.1
x1 = 0.7495 | – | – | 1402.4 | 1386.7 | 1371.3 | – | – | 138 | 109 | 86.6
x1 = 0.7988 | – | 1428.3 | 1412.2 | 1396.3 | 1380.9 | – | 235 | 180 | 140 | 110
x1 = 0.8496 | – | – | 1421.9 | – | 1390.4 | – | – | 238 | – | 141
x1 = 0.9015 | 1466 | 1448.3 | 1431.5 | 1415.3 | 1399.6 | 585 | 424 | 313 | 236 | 181
x1 = 0.9493 | 1476.4 | 1457.8 | 1440.5 | 1423.9 | – | 797 | 566 | 412 | 305 | –
x1 = 1 | 1488 | 1468.3 | – | 1433 | 1416.7 | 1103 | 765 | – | 397 | 295
